Laboratory results published in patent publication US4746675A, “External pharmaceutical composition” (Teijin Limited, priority 1983, dated 1988).

Legend:
[1] = test system: carrageenan edema; assay: carrageenan edema inhibiting effect of betamethasone valerate ointments; assay type: in vivo, rat; details: Table 5, betamethasone valerate ointment with penetration enhancer
Experimental: An ointment was prepared from 0.15 part by weight of betamethasone valerate, 9.85 parts by weight of compound (168) and 90 parts by weight of the hydrophilic ointment.
In accordance with the method of R. Passarella et al. [Argneim. Forsch 30, (I), Nr. 4, 647-651 (1980)], the carrageenan edema inhibiting effect of the above ointment was examined. Specifically, 0.1 ml of a 1% carrageenan suspension in 0.9% NaCl solution was injected into the tip of the right leg of a rat (body weight 150-175 g). The foot volume was measured immediately after administration of carrageenan and 3, 5, and 6 hours after the administration by means of a mercury displacement device. 0.5, 1 and 2 hours after the administration of carrageenan, 100 mg of the ointment was well […] into each of the sites which underwent inflammation.
Various ointments were prepared from 0.15 part by weight of betamethasone valerate, […] of the various penetration enhancers shown in Table 5, and 85 parts by weight of the hydrophilic ointment, and tested in the same way as in Example 23.

[2] = test system: eye (cornea, iris, conjunctiva); assay: primary eye irritation (Draize) in rabbits; assay type: in vivo, white native male rabbits; details: for Primary irritation score, Conjunctiva / Primary irritation score, Cornea / Primary irritation score, Iris / Primary irritation score, Total: average of three rabbits
Experimental: enhancers of this invention shown in Table 17 was applied dropwise to one eye of white native male rabbits (body weight 2.0 to 3.0 kg; 3 per group) which, it had been ascertained, were free from any trouble at the cornea, iris and conjunctiva. Nothing was applied to the other eye. Thus, irritation of the absorption aid to the mucous membrane of the eyes were examined, and scores were calculated in accordance with the Draize's eye irritation evaluating method [Association of Foods, "Drugs and Cosmetics" (1957)].
As a control, sodium laurylsulfate, a kind of surface-active agent, was evaluated in the same way, and the results are also shown in Table 17.

CCCCCCOCC(O)COC(=O)[C@@H]1CCC(=O)N1 (stereo partly shown) [Compound (104), 3-hexyloxy-2-hydroxy-1-pyroglutamyloxypropane]
Percentage inhibition vs. control ([1]; 3 hrs): 18.3%
Percentage inhibition vs. control ([1]; 5 hrs): 35.3%
Percentage inhibition vs. control ([1]; 6 hrs): 37.0%

CCCCCCCCCCCCOS(=O)(=O)[O-].[Na+] [Sodium Laurylsulfate, sodium laurylsulfate, reference compound]
Primary irritation score, Conjunctiva ([2]; 0.1% soln, 1 hour): 4.0
Primary irritation score, Cornea ([2]; 0.1% soln, 1 hour): 0
Primary irritation score, Iris ([2]; 0.1% soln, 1 hour): 0
Primary irritation score, Total ([2]; 0.1% soln, 1 hour): 4.0
Primary irritation score, Conjunctiva ([2]; 0.1% soln, 3 hours): 4.0
Primary irritation score, Cornea ([2]; 0.1% soln, 3 hours): 0
Primary irritation score, Iris ([2]; 0.1% soln, 3 hours): 0
Primary irritation score, Total ([2]; 0.1% soln, 3 hours): 4.0
Primary irritation score, Conjunctiva ([2]; 0.1% soln, 6 hours): 0
Primary irritation score, Cornea ([2]; 0.1% soln, 6 hours): 0
Primary irritation score, Iris ([2]; 0.1% soln, 6 hours): 0
Primary irritation score, Total ([2]; 0.1% soln, 6 hours): 0
Primary irritation score, Conjunctiva ([2]; 0.1% soln, 24 hours): 0
Primary irritation score, Cornea ([2]; 0.1% soln, 24 hours): 0
Primary irritation score, Iris ([2]; 0.1% soln, 24 hours): 0
Primary irritation score, Total ([2]; 0.1% soln, 24 hours): 0
Primary irritation score, Conjunctiva ([2]; 0.1% soln, 48 hours): 0
Primary irritation score, Cornea ([2]; 0.1% soln, 48 hours): 0
Primary irritation score, Iris ([2]; 0.1% soln, 48 hours): 0
Primary irritation score, Total ([2]; 0.1% soln, 48 hours): 0
Primary irritation score, Conjunctiva ([2]; 0.1% soln, 72 hours): 0
Primary irritation score, Cornea ([2]; 0.1% soln, 72 hours): 0
Primary irritation score, Iris ([2]; 0.1% soln, 72 hours): 0
Primary irritation score, Total ([2]; 0.1% soln, 72 hours): 0
Primary irritation score, Conjunctiva ([2]; 0.1% soln, 96 hours): 0
Primary irritation score, Cornea ([2]; 0.1% soln, 96 hours): 0
Primary irritation score, Iris ([2]; 0.1% soln, 96 hours): 0
Primary irritation score, Total ([2]; 0.1% soln, 96 hours): 0
Primary irritation score, Conjunctiva ([2]; 0.1% soln, 168 hours): 0
Primary irritation score, Cornea ([2]; 0.1% soln, 168 hours): 0
Primary irritation score, Iris ([2]; 0.1% soln, 168 hours): 0
Primary irritation score, Total ([2]; 0.1% soln, 168 hours): 0
Primary irritation score, Conjunctiva ([2]; 2.4% soln, 1 hour): 13.3
Primary irritation score, Cornea ([2]; 2.4% soln, 1 hour): 0
Primary irritation score, Iris ([2]; 2.4% soln, 1 hour): 5.0
Primary irritation score, Total ([2]; 2.4% soln, 1 hour): 18.3
Primary irritation score, Conjunctiva ([2]; 2.4% soln, 3 hours): 12.7
Primary irritation score, Cornea ([2]; 2.4% soln, 3 hours): 0
Primary irritation score, Iris ([2]; 2.4% soln, 3 hours): 0
Primary irritation score, Total ([2]; 2.4% soln, 3 hours): 12.7
Primary irritation score, Conjunctiva ([2]; 2.4% soln, 6 hours): 11.3
Primary irritation score, Cornea ([2]; 2.4% soln, 6 hours): 0
Primary irritation score, Iris ([2]; 2.4% soln, 6 hours): 0
Primary irritation score, Total ([2]; 2.4% soln, 6 hours): 11.3
Primary irritation score, Conjunctiva ([2]; 2.4% soln, 24 hours): 8.0
Primary irritation score, Cornea ([2]; 2.4% soln, 24 hours): 0
Primary irritation score, Iris ([2]; 2.4% soln, 24 hours): 0
Primary irritation score, Total ([2]; 2.4% soln, 24 hours): 8.0
Primary irritation score, Conjunctiva ([2]; 2.4% soln, 48 hours): 4.0
Primary irritation score, Cornea ([2]; 2.4% soln, 48 hours): 0
Primary irritation score, Iris ([2]; 2.4% soln, 48 hours): 0
Primary irritation score, Total ([2]; 2.4% soln, 48 hours): 4.0
Primary irritation score, Conjunctiva ([2]; 2.4% soln, 72 hours): 2.7
Primary irritation score, Cornea ([2]; 2.4% soln, 72 hours): 0
Primary irritation score, Iris ([2]; 2.4% soln, 72 hours): 0
Primary irritation score, Total ([2]; 2.4% soln, 72 hours): 2.7
Primary irritation score, Conjunctiva ([2]; 2.4% soln, 96 hours): 2.0
Primary irritation score, Cornea ([2]; 2.4% soln, 96 hours): 0
Primary irritation score, Iris ([2]; 2.4% soln, 96 hours): 0
Primary irritation score, Total ([2]; 2.4% soln, 96 hours): 2.0
Primary irritation score, Conjunctiva ([2]; 2.4% soln, 168 hours): 0.7
Primary irritation score, Cornea ([2]; 2.4% soln, 168 hours): 0
Primary irritation score, Iris ([2]; 2.4% soln, 168 hours): 0
Primary irritation score, Total ([2]; 2.4% soln, 168 hours): 0.7
eye irritation (in words) ([2]; rabbit, in vivo): fairly strong irritation

CCCCCCCC(=O)OCC(COC(=O)[C@@H]1CCC(=O)N1)OC(=O)CCCCCCC (stereo partly shown) [Compound (162), 2,3-dioctanoyloxy-1-pyroglutamyloxypropane]
Percentage inhibition vs. control ([1]; 3 hrs): 16.1%
Percentage inhibition vs. control ([1]; 5 hrs): 34.0%
Percentage inhibition vs. control ([1]; 6 hrs): 34.2%
Primary irritation score, Conjunctiva ([2]; 2.4% soln, 1 hour): 3.3
Primary irritation score, Cornea ([2]; 2.4% soln, 1 hour): 0
Primary irritation score, Iris ([2]; 2.4% soln, 1 hour): 0
Primary irritation score, Total ([2]; 2.4% soln, 1 hour): 3.3
Primary irritation score, Conjunctiva ([2]; 2.4% soln, 3 hours): 2.0
Primary irritation score, Cornea ([2]; 2.4% soln, 3 hours): 0
Primary irritation score, Iris ([2]; 2.4% soln, 3 hours): 0
Primary irritation score, Total ([2]; 2.4% soln, 3 hours): 2.0
Primary irritation score, Conjunctiva ([2]; 2.4% soln, 6 hours): 2.0
Primary irritation score, Cornea ([2]; 2.4% soln, 6 hours): 0
Primary irritation score, Iris ([2]; 2.4% soln, 6 hours): 0
Primary irritation score, Total ([2]; 2.4% soln, 6 hours): 2.0
Primary irritation score, Conjunctiva ([2]; 2.4% soln, 24 hours): 0
Primary irritation score, Cornea ([2]; 2.4% soln, 24 hours): 0
Primary irritation score, Iris ([2]; 2.4% soln, 24 hours): 0
Primary irritation score, Total ([2]; 2.4% soln, 24 hours): 0
Primary irritation score, Conjunctiva ([2]; 2.4% soln, 48 hours): 0
Primary irritation score, Cornea ([2]; 2.4% soln, 48 hours): 0
Primary irritation score, Iris ([2]; 2.4% soln, 48 hours): 0
Primary irritation score, Total ([2]; 2.4% soln, 48 hours): 0
Primary irritation score, Conjunctiva ([2]; 2.4% soln, 72 hours): 0
Primary irritation score, Cornea ([2]; 2.4% soln, 72 hours): 0
Primary irritation score, Iris ([2]; 2.4% soln, 72 hours): 0
Primary irritation score, Total ([2]; 2.4% soln, 72 hours): 0
Primary irritation score, Conjunctiva ([2]; 2.4% soln, 96 hours): 0
Primary irritation score, Cornea ([2]; 2.4% soln, 96 hours): 0
Primary irritation score, Iris ([2]; 2.4% soln, 96 hours): 0
Primary irritation score, Total ([2]; 2.4% soln, 96 hours): 0
Primary irritation score, Conjunctiva ([2]; 2.4% soln, 168 hours): 0
Primary irritation score, Cornea ([2]; 2.4% soln, 168 hours): 0
Primary irritation score, Iris ([2]; 2.4% soln, 168 hours): 0
Primary irritation score, Total ([2]; 2.4% soln, 168 hours): 0

CCC=CC(=O)OCC(O)COC(=O)[C@@H]1CCC(=O)N1 (stereo partly shown) [Compound (184), 2-hydroxy-3(2-pentenoyloxy)-1-pyroglutamyloxypropane]
Percentage inhibition vs. control ([1]; 3 hrs): 19.0%
Percentage inhibition vs. control ([1]; 5 hrs): 35.3%
Percentage inhibition vs. control ([1]; 6 hrs): 35.5%

CC1(C)OCC(COC(=O)C2CCC(=O)N2)O1 (stereo not shown) [Compound (202), 2,3-dioxo-(dimethyl)methylene-1-pyroglutamyloxypropane]
Percentage inhibition vs. control ([1]; 3 hrs): 17.7%
Percentage inhibition vs. control ([1]; 5 hrs): 39.6%
Percentage inhibition vs. control ([1]; 6 hrs): 36.1%

CCCCCCCCCCCCCCCC1OCC(COC(=O)C2CCC(=O)N2)O1 (stereo not shown) [Compound (220), 2,3-dioxo-(pentadecyl)methylene-1-pyroglutamyloxypropane]
Percentage inhibition vs. control ([1]; 3 hrs): 16.6%
Percentage inhibition vs. control ([1]; 5 hrs): 29.7%
Percentage inhibition vs. control ([1]; 6 hrs): 29.8%

CCCCCCCCCCCCCCCCCCOCC(COC(=O)[C@@H]1CCC(=O)N1)OCCCCCCCCCCCCCCCCCC (stereo partly shown) [Compound (124), 2,3-dioctadecyloxy-1-pyroglutamyloxypropane]
Percentage inhibition vs. control ([1]; 3 hrs): 19.5%
Percentage inhibition vs. control ([1]; 5 hrs): 37.8%
Percentage inhibition vs. control ([1]; 6 hrs): 36.6%

CCCCC(=O)OCC(COC(=O)[C@@H]1CCC(=O)N1)OC(=O)CCCC (stereo partly shown) [Compound (158), 2,3-divaleryloxy-1-pyroglutamyloxypropane]
Percentage inhibition vs. control ([1]; 3 hrs): 18.0%
Percentage inhibition vs. control ([1]; 5 hrs): 36.0%
Percentage inhibition vs. control ([1]; 6 hrs): 36.1%

CCCCCCCC=CCCCCCCCCOCC(COC(=O)[C@@H]1CCC(=O)N1)OCCCCCCCCC=CCCCCCCC (stereo partly shown) [Compound (142), 2,3-di(9-heptadecenyloxy)-1-pyroglutamyloxypropane]
Percentage inhibition vs. control ([1]; 3 hrs): 16.5%
Percentage inhibition vs. control ([1]; 5 hrs): 34.6%
Percentage inhibition vs. control ([1]; 6 hrs): 34.0%

CCCCCCCCCCC=CCCCCCCCCCC(=O)OCC(O)COC(=O)[C@@H]1CCC(=O)N1 (stereo partly shown) [Compound (192), 3-(11-docosenoyloxy)-2-hydroxy-1-pyroglutamyloxypropane]
Percentage inhibition vs. control ([1]; 3 hrs): 19.5%
Percentage inhibition vs. control ([1]; 5 hrs): 36.7%
Percentage inhibition vs. control ([1]; 6 hrs): 30.8%

CCCCCCCCOCC(COC(=O)[C@@H]1CCC(=O)N1)OCCCCCCCC (stereo partly shown) [Compound (122), 2,3-dioctyloxy-1-pyroglutamyloxypropane]
Percentage inhibition vs. control ([1]; 3 hrs): 20.2%
Percentage inhibition vs. control ([1]; 5 hrs): 36.5%
Percentage inhibition vs. control ([1]; 6 hrs): 38.3%

CCCCCCCC(=O)OCC(O)COC(=O)[C@@H]1CCC(=O)N1 (stereo partly shown) [Compound (160), 2-hydroxy-3-octanoyloxy-1-pyroglutamyloxypropane]
Percentage inhibition vs. control ([1]; 3 hrs): 17.7%
Percentage inhibition vs. control ([1]; 5 hrs): 30.8%
Percentage inhibition vs. control ([1]; 6 hrs): 29.9%

CCCCC(=O)OCC(O)COC(=O)[C@@H]1CCC(=O)N1 (stereo partly shown) [Compound (156), 2-hydroxy-3-valeryloxy-1-pyroglutamyloxypropane]
Percentage inhibition vs. control ([1]; 3 hrs): 18.6%
Percentage inhibition vs. control ([1]; 5 hrs): 35.1%
Percentage inhibition vs. control ([1]; 6 hrs): 34.3%

CCCCCCCCCCCCCCCCCCOCC(O)COC(=O)[C@@H]1CCC(=O)N1 (stereo partly shown) [Compound (112), 2-hydroxy-3-octadecyloxy-1-pyroglutamyloxypropane]
Percentage inhibition vs. control ([1]; 3 hrs): 17.8%
Percentage inhibition vs. control ([1]; 5 hrs): 32.2%
Percentage inhibition vs. control ([1]; 6 hrs): 33.0%

CCCCCCCC/C=C\CCCCCCCC(=O)OCC(COC(=O)C1CCC(=O)N1)OC(=O)CCCCCCC/C=C\CCCCCCCC (stereo not shown) [Compound (170), 2,3,-dioleoyloxy-1-pyroglutamyloxypropane]
Percentage inhibition vs. control ([1]; 3 hrs): 17.9%
Percentage inhibition vs. control ([1]; 5 hrs): 33.4%
Percentage inhibition vs. control ([1]; 6 hrs): 36.2%
